Like-named read-outs stand apart in the source and are kept apart here.
What was measured:
[1] = 1.4M, tissue-engineered collagen scaffold, 20° C.; ref [7]; cited from earlier work
whole menisci [2] = experiment: alamarBlue metabolic activity of whole menisci; format: cell-based, Yorkshire pigs
Method: (§1) Following the completion of the warming and unloading steps, all tissues were subjected to recovery in DMEM supplemented with 1% P/S (e.g., DMEM/P/S) for one hour within a 37° C. incubator. Subsequently, the alamarBlue assay was conducted to assess the metabolic activity of tissues. This assay employs a water soluble fluorometric viability indicator, relying on the detection of metabolic activity. […] In the case of each meniscal specimen and each TMJ disc, evaluations were carried out both before and after different preservation treatments. For the whole meniscus, each fresh, slow-frozen, or vitrified sample underwent manual sectioning into sagittal sections, each measuring 1-2 mm in thickness, spanning from anterior to posterior horn. Within each region, a minimum of three sections were obtained.
(§2) Either each individual specimen or each section of the whole meniscus was incubated in 1 ml of DMEM/P/S and 100 μl alamarBlue reagent. This process was carried out under standard cell culture conditions for 3 hours. In contrast, each whole TMJ disc was incubated in 5.4 ml of DMEM/P/S and 600 μl alamarBlue reagent under standard cell culture conditions for 4 hours. Subsequently, fluorescence measurements were conducted in duplicate using a multimode microplate reader at an excitation wavelength of 544 nm and an emission wavelength of 590 nm. Following assessment, each sample was rinsed with DMEM/P/S for 30 mins to remove the alamarBlue reagent prior to proceeding with subsequent measurements. The time-course viability from day 0 to day 4 for each sample was assessed. In the case of meniscal specimens and whole TMJ discs, the results (expressed in relative fluorescence unit, RFU) of the slow-frozen and vitrified groups were normalized to the measurements taken from their respective fresh samples before any preservation treatments were applied. For the measurements of the whole meniscus, the results (expressed as RUF/mg of dry weight) from the slow-frozen and vitrified menisci were normalized to the corresponding values of fresh menisci within the same batch. Dry weight values of samples were measured using an analytical balance after being placed in a 60° C. oven over 48 hours subsequent to the completion of the time-course alamarBlue assay.

[3] = alamarBlue metabolic activity of meniscal specimens; format: cell-based, Yorkshire pigs; details: 3.5 mm/SF: 3.5 mm specimens slow-frozen in Me2SO (10% v/v), normalized to specimen before treatment
Method: as §1, §2

[4] = 6.5M, porcine articular cartilage, ref [5], cited from earlier work
whole TMJ discs [5] = experiment: Fluorescence live/dead viability of whole TMJ discs; format: cell-based, Yorkshire pigs; details: for Viability (%): Slow-frozen (Me2SO 10% v/v)
Method: (§3) Tissue viability was assessed by fluorescence live/dead staining. Each cylindrical specimen was longitudinally divided into two sections for imaging along the sagittal plane. To comprehensively assess the whole meniscus, both transverse and sagittal sections were prepared. In the case of transverse sections, a 300 μm thick slice of the whole meniscus was obtained using a vibrating blade microtome due to its larger surface area. For sagittal sections, approximately 1-2 mm thick slices were manually cut from corresponding regions. For the TMJ disc samples, strips measuring 6 mm in width, encompassing the anterior, central, posterior, medial, and lateral regions, were manually excised from the whole disc using a scalpel. All cut meniscal slices were immersed in DMEM with 1% P/S culture medium with 4 μM calcein AM and 2 μM ethidium homodimer-1 at room temperature for 2 hours before imaging. In contrast, the TMJ slices underwent staining with distinct dye concentrations: 2 µM calcein AM and 4 μM ethidium homodimer-1, following the same set of conditions. The green-fluorescent calcein indicates living cells by intracellular esterase activity, while the red-fluorescent ethidium homodimer-1 indicates dead cells by loss of plasma membrane integrity. All images were captured using an inverted multiphoton laser scanning microscope. The excitation wavelength was set as 800 nm. Green fluorescence was collected within the 495-540 nm range, and red fluorescence was collected in the 575-630 nm range. Images were taken at a depth of 60 μm below the tissue surface. The whole transverse section images of the whole menisci and the whole sagittal section images of the TMJ disc strips were captured using a 4× objective magnification and stitched together. An interesting view of each region was imaged using a higher objective magnification of 10×. All sagittal section images for meniscal specimens, three primary regions of whole menisci, and five primary regions of whole TMJ discs were captured using a 10× objective magnification for quantitative analysis. Live/dead quantification of 3.5 mm thick specimens was performed within the middle layer image (with a thickness of 1.26 mm) to avoid the count of dead cells on both surfaces associated with manual sectioning. In the context of sagittal sections in each region of the whole meniscus, images were acquired, and cell viability was quantified for the inner, middle, and outer layers. Images of sagittal sections in each region of the TMJ disc were acquired and used for viability quantification. Live/dead quantification was performed using software. Cell viability was defined as the proportion between the count of viable cells and the total cell count (comprising both live and dead cells).

[6] = human articular cartilage, ref [6], cited from earlier work
[7] = articular cartilage of calves, 22° C.; 3.1M Me2SO, 3.1M PG, 2.2M formamide; ref [4]; cited from earlier work
whole menisci [8] = experiment: Fluorescence live/dead viability of whole menisci; format: cell-based, Yorkshire pigs; details: for Viability (%): whole menisci, SF (slow-frozen in Me2SO 10% v/v)
Method: as §3

whole TMJ discs [9] = experiment: alamarBlue metabolic activity of whole TMJ discs; format: cell-based, Yorkshire pigs; details: Slow-frozen (Me2SO 10% v/v)
Method: as §1, §2

## C[S+](C)[O-] [Me2SO, dimethyl sulfoxide]
[1]
  D (× 10^−10 m^2/s): 2.4 × 10^−10 m^2/s
Whole menisci [2]; Anterior: SF (slow-frozen in Me2SO 10% v/v), Day 0 post-warming, normalized to fresh menisci day 0
  Metabolic activity, Viability (%): 32.9 ± 11.1%
Whole menisci [2]; Anterior: SF (slow-frozen in Me2SO 10% v/v), Day 1, normalized to fresh menisci day 0
  Metabolic activity, Viability (%): 39.7 ± 10.1%
Whole menisci [2]; Anterior: SF (slow-frozen in Me2SO 10% v/v), Day 2, normalized to fresh menisci day 0
  Metabolic activity, Viability (%): 31.4 ± 7.8%
Whole menisci [2]; Anterior: SF (slow-frozen in Me2SO 10% v/v), Day 3, normalized to fresh menisci day 0
  Metabolic activity, Viability (%): 34.0 ± 6.9%
Whole menisci [2]; Anterior: SF (slow-frozen in Me2SO 10% v/v), Day 4, normalized to fresh menisci day 0
  Metabolic activity, Viability (%): 36.7 ± 7.5%
Whole menisci [2]; Central: SF (slow-frozen in Me2SO 10% v/v), Day 0 post-warming, normalized to fresh menisci day 0
  Metabolic activity, Viability (%): 43.1 ± 13.8%
Whole menisci [2]; Central: SF (slow-frozen in Me2SO 10% v/v), Day 1, normalized to fresh menisci day 0
  Metabolic activity, Viability (%): 55.4 ± 16.8%
Whole menisci [2]; Central: SF (slow-frozen in Me2SO 10% v/v), Day 2, normalized to fresh menisci day 0
  Metabolic activity, Viability (%): 35.1 ± 11.4%
Whole menisci [2]; Central: SF (slow-frozen in Me2SO 10% v/v), Day 3, normalized to fresh menisci day 0
  Metabolic activity, Viability (%): 37.3 ± 9.6%
Whole menisci [2]; Central: SF (slow-frozen in Me2SO 10% v/v), Day 4, normalized to fresh menisci day 0
  Metabolic activity, Viability (%): 35.3 ± 11.4%
Whole menisci [2]; Posterior: SF (slow-frozen in Me2SO 10% v/v), Day 0 post-warming, normalized to fresh menisci day 0
  Metabolic activity, Viability (%): 38.0 ± 9.3%
Whole menisci [2]; Posterior: SF (slow-frozen in Me2SO 10% v/v), Day 1, normalized to fresh menisci day 0
  Metabolic activity, Viability (%): 47.1 ± 7.2%
Whole menisci [2]; Posterior: SF (slow-frozen in Me2SO 10% v/v), Day 2, normalized to fresh menisci day 0
  Metabolic activity, Viability (%): 34.9 ± 7.3%
Whole menisci [2]; Posterior: SF (slow-frozen in Me2SO 10% v/v), Day 3, normalized to fresh menisci day 0
  Metabolic activity, Viability (%): 42.4 ± 7.4%
Whole menisci [2]; Posterior: SF (slow-frozen in Me2SO 10% v/v), Day 4, normalized to fresh menisci day 0
  Metabolic activity, Viability (%): 45.7 ± 13.5%
[3]; Day 0 post-warming
  Metabolic activity, Viability (%): 47.0 ± 16.4%
[3]; Day 1
  Metabolic activity, Viability (%): 43.0 ± 21.0%
[3]; Day 2
  Metabolic activity, Viability (%): 39.0 ± 19.8%
[3]; Day 3
  Metabolic activity, Viability (%): 39.5 ± 16.3%
[3]; Day 4
  Metabolic activity, Viability (%): 52.6 ± 14.5%
[4]; 4° C.
  D (× 10^−10 m^2/s): 2.4 × 10^−10 m^2/s
[4]; 22° C.
  D (× 10^−10 m^2/s): 3.0 × 10^−10 m^2/s
[4]; 37° C.
  D (× 10^−10 m^2/s): 4.5 × 10^−10 m^2/s
Whole TMJ discs [5]; Anterior
  Viability (%): 37.4 ± 2.7%
Whole TMJ discs [5]; Central
  Viability (%): 40.1 ± 4.2%
Whole TMJ discs [5]; Lateral
  Viability (%): 39.0 ± 2.7%
Whole TMJ discs [5]; Medial
  Viability (%): 38.3 ± 3.5%
Whole TMJ discs [5]; Posterior
  Viability (%): 37.1 ± 2.2%
Whole TMJ discs [5]; slow-frozen samples (Me2SO 10% v/v)
  viability: less than 40%
[6]; 1.4M, 4° C.
  D (× 10^−10 m^2/s): 6.1 × 10^−10 m^2/s
[6]; 1.4M, 27° C.
  D (× 10^−10 m^2/s): 14.4 × 10^−10 m^2/s
[6]; 14M, 4° C.
  D (× 10^−10 m^2/s): 3.1 × 10^−10 m^2/s
[6]; 14M, 27° C.
  D (× 10^−10 m^2/s): 6.8 × 10^−10 m^2/s
[7]
  D (× 10^−10 m^2/s): 4.63 ± 0.85 × 10^−10 m^2/s
Whole menisci [8]; slow freezing (Me2SO 10% v/v)
  viability in whole menisci, average: ~21.6%
Whole menisci [8]; Anterior region
  Viability (%): 19.5 ± 9.6%
Whole menisci [8]; Central region
  Viability (%): 23.7 ± 6.4%
Whole menisci [8]; Inner layer of sagittal sections
  Viability (%): 20.3 ± 13.8%
Whole menisci [8]; Middle layer of sagittal sections
  Viability (%): 20.8 ± 8.9%
Whole menisci [8]; Outer layer of sagittal sections
  Viability (%): 24.6 ± 16.9%
Whole menisci [8]; Posterior region
  Viability (%): 21.4 ± 18.2%
Whole TMJ discs [9]; Day 0 post-warming, relative to respective fresh values
  Metabolic activity, Viability (%): 32.0 ± 0.8%
Whole TMJ discs [9]; Day 1, relative to respective fresh values
  Metabolic activity, Viability (%): 33.3 ± 0.5%
Whole TMJ discs [9]; Day 2, relative to respective fresh values
  Metabolic activity, Viability (%): 28.9 ± 0.5%
Whole TMJ discs [9]; Day 3, relative to respective fresh values
  Metabolic activity, Viability (%): 29.1 ± 1.7%
Whole TMJ discs [9]; Day 4, relative to respective fresh values
  Metabolic activity, Viability (%): 28.0 ± 0.6%

## CC(O)CO (stereo not shown) [PG, propylene glycol]
[4]; 4° C.
  D (× 10^−10 m^2/s): 0.9 × 10^−10 m^2/s
[4]; 22° C.
  D (× 10^−10 m^2/s): 1.6 × 10^−10 m^2/s
[4]; 37° C.
  D (× 10^−10 m^2/s): 2.2 × 10^−10 m^2/s
[7]
  D (× 10^−10 m^2/s): 3.47 ± 0.67 × 10^−10 m^2/s

## NC=O [formamide]
[7]
  D (× 10^−10 m^2/s): 6.67 ± 0.70 × 10^−10 m^2/s

— patent US20250248391A1, “VIABLE VITREOUS GRAFTS FOR PRESERVATION AND RECOVER OF TISSUE FOR TRANSPLANT AND CLINICAL USE” (Clemson University Research Foundation, priority 2024, published 2025)
